Several values for one entry are separate records, joined by “and”; a condition that tells them apart may be missing. Identical values can stand only once.
What was measured:
[1] = Brine shrimp toxicity bioassay; type: in vivo; details: Artemia salina (brine shrimp), in vivo; 24 hours, 2% DMSO
Source text: The brine shrimp assay procedure determines LC50 values of active compounds. Activities of a broad range of known active compounds are manifested as toxicity to brine shrimp (Artemia salina Leach). There are many applications of the assay including analysis of toxic substances, anaesthetics, morphine-like substances and cocarcinogenicity of phorbol esters.
The method for testing solvent toxicity used was basically that reported by J L McLaughlin in Methods of Plant Biochemistry (1991), vol. 6 (K Hostettman, ed.), Academic Press, London, 1-32. DMSO solutions of the substances to be tested were added directly to the vials containing the brine shrimp. As the concentration of DMSO that we wished to use was higher than the recommended 1% v/v testing of the toxicity of the DMSO was therefore necessary. The concentrations of DMSO tested on the shrimp, along with the results from the assay which was done in duplicate are listed below.
Brine shrimp toxicity was assayed, except for some minor modifications, according to the method of McLaughlin et al as reported in Brine Shrimp: A convenient bioassay for active plant constituents, B N Meyer, N R Ferrigni, J E Putnam, L B Jacobsen, D E Nichols and J L McLaughlin in Planta Medica (1982), 45, 31-34 and Crown gall tumours on potato discs and brine shrimp lethality: Two simple bioassays for higher plant screening and fractionation. J L McLaughlin. Methods of Plant Biochemistry (1991), vol. 6 (K Hostettman, ed.), Academic Press, London, 1-32. Ten shrimp were transferred to each of the vials and the volume adjusted to 4.9 mL. Each dose was performed in triplicate, including the control. In quick succession, the appropriate volume of additional DMSO for each dose, required to achieve a final concentration of 2%, was added before the appropriate volume of test solution. The vials were gently mixed and the time noted. After 24 hours, the number of survivors were counted and % mortality was determined. The test compounds were assayed at concentrations of 100 µM, 25 µM, 5 µM, 1 µM and 0.2 µM (and where appropriate concentrations of 0.04 µM and 0.008 µM).
The brine shrimp were able to survive without food in the vials over the 24 hour period and were therefore not fed.
The dose-response curves were constructed using the Sigmaplot computer program and the LC50 value was calculated from the intersection point of the curve and the 50 % mortality line. The LC50 values were expressed in both µM and µg/mL.

[2] = biological target: T1, SR Ca^2+-ATPase (Canis lupus familiaris, UniProt O46674); experiment: Sarcoplasmic reticulum Ca^2+-ATPase assay; type: biochemical, dog; details: for SR Ca^2+-ATPase Activity: 0 µM = 100, dog cardiac SR; for IC50: read-out: SR Ca^2+-ATPase IC50 = conc. for 50% inhibition
T1 construct: Effect of gingerols and their derivatives on the Ca^2+-ATPase activity of dog cardiac SR; from tissue; host or cells: dog heart (cardiac sarcoplasmic reticulum)
Protocol: A portion at each concentration (54 µl) was aliquoted into 4 designated wells of the microplate (two of four wells were controls). Each well was mixed with ATP solution (20 mM, 6 µl), except the controls, using an 8 channel pipette. The controls were assayed in the absence of ATP or calcium.
The plate was incubated with the lid on, for 30 min at 37°C, colour reagent (160 µl) was then added and mixed with citrate solution (34%, 30 µl). The plate was developed at room temperature for 30 min then absorbance at 655 nm was read from the microplate reader. The Ca^2+-ATPase activity was quantitated, from a Pi standard curve, as concentration of liberated inorganic phosphate.
Stock solutions (10 mM) of test substance were prepared in DMSO, then series dilutions were made either in DMSO or in 1M HEPES to produce the dose-response concentrations. The maximum concentration of DMSO in the final assay solution was 2.5%.
Each concentration of test substance was assayed in duplicate in the presence and absence of ATP or calcium. Phosphate standards are run on each plate as follows:
Effect of gingerols and their derivatives on the Ca^2+-ATPase activity of dog cardiac SR.

[3] = system: DRG neuronal cells; experiment: Peak [Ca^2+]i transients in cultured dorsal root ganglion neurons (Fura-2); type: cell-based, rat; details: for Number of capsaicin-sensitive cells responding / Peak [Ca^2+]i (Average ±SD): 2 mM Ca^2+
Protocol: DRG from neonatal (3-5 days old) rat or adult Sprague-Dawley rats were incubated in Hanks CMF saline with 0.05% collagenase and 0.25% trypsin for 25 min at 37° C. Individual cells were obtained by trituration with fire polished Pasteur pipettes of diminishing diameters. Neurones were isolated from the cell suspension in 30% Percoll and then plated on collagen coated coverslips or in 24-well plates, then cultured in neurobasal medium with B27 supplement, 50 ng/ml 2.5 S nerve growth factor, 2 mM 1-glutamine and 100 U/ml penicillin/streptomycin. Cultures were maintained at 37° C with 5% CO2. 30% Percoll increases the percentage of capsaicin-sensitive DRG neurones up to 70%. For peak [Ca^2+]i transients measurements, cells on coverslips were incubated with 5 µM Fura-2 AM for 30 min at 37° C. The coverslips were then mounted on a chamber attached to a fast sample application perfusion system which allows changing solutions in the second range. Recordings were made on the stage of a Nikon Diaphot inverted microscope fitted with a Nikon 40 x Fluo (NA 0.85) DL Ph3 or 40 x Fluo (NA 1.3) oil objective. [Ca^2+]i was calculated from dual excitation wavelength (340/380 nm) fluorescence measurements following an intracellular calibration procedure by the Grynkiewicz equation, using MCID M2/M4 v.3.0 (Imaging Res. Inc.) software. Cells were continuously perfused with a solution consisting of 140 mM NaCl, 2 mM CaCl2, 5 mM KCl, 20 mM HEPES, 10 mM glucose, pH 7.4. To study KCl evoked depolarisation, 50 mM NaCl was replaced by equimolar KCl. Cytoplasmic localisation of Fura-2 was tested with the Mn^2+ quenching technique (Dedov and Roufogalis, 1998). All experiments were performed at room temperature (20-23°C).
Typical changes in [Ca^2+]i upon depolarisation were evoked by 50 mM KCl and by application of 1 µM capsaicin; both were applied for 30 sec. Capsaicin-evoked peak [Ca^2+]i transients are characterised by a fast rise and long-steady state [Ca^2+]i clearance from the cytoplasm. In capsaicin-sensitive cells the half-time of cytoplasmic Ca^2+ clearance was proportional to the amplitudes of peak [Ca^2+]i transients.
To examine the effect of gingerol derivatives, one or several compounds in succession at a concentration of 10 µM were applied for 1 min to the DRG neuronal cells followed by washing out for 4 min with physiological solution. To the capsaicin-sensitive cells, 10 µM capsaicin and 50 mM KCl were applied, respectively, to confirm the viability of the cells. In addition, morphological appearances of the cells were also examined at the end of experiment. […]

[4] = system: Platelet rich plasma; experiment: Platelet aggregation: [^3H]-serotonin release from platelet rich plasma, arachidonic acid initiated; type: cell-based; details: Homo sapiens, activation by EC50 concentration of arachidonic acid
Protocol: Blood was collected from healthy volunteers who had taken no medication in the previous two weeks. The anticoagulant used was 3.8 % trisodium citrate. Platelet rich plasma was prepared and incubated with [^3H]-serotonin. This was followed by addition of gingerol analogues. Platelet activation was initiated using the EC50 concentration for arachidonic acid. The percentage of [^3H]-serotonin release was measured using a liquid scintillation counter. Then, dose-response curves were established and IC50 values were obtained.

T1 sequence (O46674 whole entry): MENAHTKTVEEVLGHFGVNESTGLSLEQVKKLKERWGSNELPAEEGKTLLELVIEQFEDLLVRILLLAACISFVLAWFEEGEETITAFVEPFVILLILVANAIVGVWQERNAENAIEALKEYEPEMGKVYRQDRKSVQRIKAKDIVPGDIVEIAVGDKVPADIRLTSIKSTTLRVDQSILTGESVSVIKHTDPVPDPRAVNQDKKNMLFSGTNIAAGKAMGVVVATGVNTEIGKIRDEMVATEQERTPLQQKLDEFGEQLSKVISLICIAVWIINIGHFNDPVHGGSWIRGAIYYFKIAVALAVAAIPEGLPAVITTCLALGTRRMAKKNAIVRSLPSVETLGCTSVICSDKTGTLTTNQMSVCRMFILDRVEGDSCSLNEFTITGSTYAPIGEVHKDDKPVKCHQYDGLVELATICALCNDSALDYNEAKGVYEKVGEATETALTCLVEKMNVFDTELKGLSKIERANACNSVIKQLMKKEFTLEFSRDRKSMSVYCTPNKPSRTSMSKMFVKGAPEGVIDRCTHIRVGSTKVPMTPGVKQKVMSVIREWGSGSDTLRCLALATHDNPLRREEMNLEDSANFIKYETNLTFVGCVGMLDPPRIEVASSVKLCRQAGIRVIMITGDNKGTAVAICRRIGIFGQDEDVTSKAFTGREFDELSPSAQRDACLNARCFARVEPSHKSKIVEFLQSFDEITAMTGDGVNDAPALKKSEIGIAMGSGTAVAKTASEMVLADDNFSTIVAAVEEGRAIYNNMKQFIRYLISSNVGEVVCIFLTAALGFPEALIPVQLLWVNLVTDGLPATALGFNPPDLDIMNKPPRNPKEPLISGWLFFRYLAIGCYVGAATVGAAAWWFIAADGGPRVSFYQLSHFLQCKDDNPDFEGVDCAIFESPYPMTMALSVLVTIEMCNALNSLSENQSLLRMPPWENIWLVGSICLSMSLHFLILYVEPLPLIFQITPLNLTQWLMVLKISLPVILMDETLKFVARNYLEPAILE

| IC50 [2] [µM] | SR Ca^2+-ATPase ↑ increase or stimulation ([2]; @ 50 µM) | SMILES | LC50 at 24 h [1] | SR Ca^2+-ATPase Activity ([2]; 5 µM) | SR Ca^2+-ATPase Activity ([2]; 10 µM) | SR Ca^2+-ATPase Activity ([2]; 25 µM) | SR Ca^2+-ATPase Activity ([2]; 50 µM) | Number of capsaicin-sensitive cells responding ([3]; 10 µM applied for 1 min) | Peak [Ca^2+]i (Average ±SD) ([3]; 10 µM applied for 1 min) [nM] | other results |
| --- | --- | --- | --- | --- | --- | --- | --- | --- | --- | --- |
| ~25 |  | CCCCCCCC(O)CCCCc1ccc(O)c(OC)c1 (stereo not drawn) [1-(4-hydroxy-3-methoxyphenyl)dodecan-5-ol] | 6.6 µM and 2 µg/mL | 113 | 136 | 158 | 126 | 0 out of 5 | 0 | SR Ca^2+-ATPase Activity ([2]; 100 µM): 87; SR Ca^2+-ATPase Activity ([2]; 200 µM): 18; SR Ca^2+-ATPase ↑ increase or stimulation ([2]; @ 25 µM): ↑57% @ 25 |
| ~50 |  | CCCCCCCC(O)CC(=O)c1ccc(O)c(OC)c1 (stereo not drawn) [3-hydroxy-1-(4-hydroxy-3-methoxyphenyl)decan-1-one] | 66 µM and 19 µg/mL | 152 | 174 | 195 | 180 | 0 out of 5 | 0 | SR Ca^2+-ATPase Activity ([2]; 1 µM): 104; SR Ca^2+-ATPase Activity ([2]; 100 µM): 222; SR Ca^2+-ATPase ↑ increase or stimulation ([2]; @ 25 µM, listed as 3-hydroxy-1-(4-hydroxy-3-methoxyphenyl) decan-1-one (3.92)): ↑95% @ 25; SR Ca^2+-ATPase ↑ increase or stimulation ([2]; @ 25 µM, listed as 3.92): 95%; stimulatory activity towards dog heart SR Ca^2+-ATPase ([2]; at 3 µM): 200% |
|  |  | CCCCCCCC(O)CC(=O)CCc1ccc2c(c1)OCO2 (stereo not drawn) [5-hydroxy-1-(3,4-methylenedioxyphenyl)dodecan-3-one] | 3 µM and 0.96 µg/mL |  |  |  |  | 2 | 225 ± 78 |  |
| > 100 | ↑60% @ 50 | CCCCCCCC(O)CC(=O)CCc1ccc(O)cc1 (stereo not drawn) [[8]-demethoxygingerol, 5-hydroxy-1-(4-hydroxyphenyl)dodecan-3-one] | 25 µM and 7.3 µg/mL |  |  |  |  | 2 | 243 ± 71 |  |
| > 100 | ↑54% @ 50 | CCCCCCCC(O)CC(O)CCc1ccc(O)c(OC)c1 (stereo not drawn) [[8]-gingerdiol, 1-(4-hydroxy-3-methoxyphenyl)dodecane-3,5-diol, reference compound] |  |  |  |  |  | 2 | 246 ± 35 | IC50 [4]: 82.6 ± 9 µM |
| > 100 | ↑64% @ 50 | CCCCCCCC(O)CC(=O)CCc1ccc(OC)c(O)c1 (stereo not drawn) [[8]-isogingerol, 5-hydroxy-1-(3-hydroxy-4-methoxyphenyl)dodecan-3-one, reference compound] | 11 µM and 3.5 µg/mL |  |  |  |  | 2 | 281 ± 42 |  |
| > 100 |  | CCCCCCCC(O)CC(=O)CCc1cccc(OC)c1O (stereo not drawn) [[8]-orthogingerol, 5-hydroxy-1-(2-hydroxy-3-methoxyphenyl)dodecan-3-one] | 9.6 µM and 3.1 µg/mL |  |  |  |  | 2 | 245 ± 64 | SR Ca^2+-ATPase ↑ increase or stimulation ([2]; @ 100 µM): ↑40% @ 100 |

| SMILES | IC50 [2] [µM] | SR Ca^2+-ATPase ↑ increase or stimulation ([2]; @ 50 µM) | LC50 at 24 h [1] | SR Ca^2+-ATPase Activity ([2]; 5 µM) | SR Ca^2+-ATPase Activity ([2]; 10 µM) | SR Ca^2+-ATPase Activity ([2]; 25 µM) | SR Ca^2+-ATPase Activity ([2]; 50 µM) | Number of capsaicin-sensitive cells responding ([3]; 10 µM applied for 1 min) | Peak [Ca^2+]i (Average ±SD) ([3]; 10 µM applied for 1 min) [nM] | other results |
| --- | --- | --- | --- | --- | --- | --- | --- | --- | --- | --- |
| CCCCCCCCCC(O)CCc1ccc(O)c(OC)c1 (stereo not drawn) [1-(4-hydroxy-3-methoxyphenyl)dodecan-3-ol] | 50 to 100 |  | > 100 µM and > 31 µg/mL | 102 | 108 | 140 | 101 |  |  | SR Ca^2+-ATPase Activity ([2]; 100 µM): 98; SR Ca^2+-ATPase Activity ([2]; 200 µM): 16; SR Ca^2+-ATPase ↑ increase or stimulation ([2]; @ 25 µM): ↑40% @ 25; Number of capsaicin-sensitive cells responding ([3]; high responses, 10 µM): 5; Peak [Ca^2+]i (Average ±SD) ([3]; high responses, 10 µM): 661 ± 376 (high responses) nM; evoked [Ca^2+]i transients ([3]; in Ca^2+-free medium or on application of ruthenium red (1 µM)): abolished or greatly diminished; Number of capsaicin-sensitive cells responding ([3]; low responses, 10 µM): 10; Peak [Ca^2+]i (Average ±SD) ([3]; low responses, 10 µM): 187 ± 66 (low responses) nM; [Ca^2+]i in capsaicin-sensitive DRG cells ([3]; result in words): increased intracellular calcium; IC50 [4]: 58 ± 1.9 µM |
| CCCCCCCC(=O)CC(O)CCc1ccc(O)c(OC)c1 (stereo not drawn) [3-hydroxy-1-(4-hydroxy-3-methoxyphenyl)dodecan-5-one] | > 100 |  | 67 µM and 22 µg/mL |  |  |  |  | 5 | 167 ± 105 |  |
| CCCCCC(O)CC(=O)CCc1ccc(O)c(OC)c1 (stereo not drawn) [[6]-gingerol, 5-hydroxy-1-(4-hydroxy-3-methoxyphenyl)decan-3-one, reference compound] | > 100 | ↑60% @ 50 | > 100 µM and > 29 µg/mL | 120 | 117 | 137 | 160 |  |  | SR Ca^2+-ATPase Activity ([2]; 1 µM): 121; IC50 [4]: 73.8 ± 6.6 µM |
| CCCCCCCC(O)CC(=O)C=Cc1ccc(O)c(OC)c1 (stereo not drawn) [[8]-dehydrogingerol, 5-hydroxy-1-(4-hydroxy-3-methoxyphenyl)dodecan-1-ene-3-one, reference compound] | ~50 |  | 41 µM and 13 µg/mL | 88 | 92 | 95 | 65 |  |  | SR Ca^2+-ATPase Activity ([2]; 1 µM): 93; inhibition at 50 µM ([2]; @ 50 µM, read-out: SR Ca^2+-ATPase ↓ decrease or inhibition): 35% |
